Laboratory results from patent US5534416A, “Fluorescent viability assay using cyclic-substituted unsymmetrical cyanine dyes” (Molecular Probes, Inc., priority 1993, dated 1996).
Read-outs that look alike come from different tables or passages of the source.

Key:
intact cells = details: cited from earlier work; for Loading / Retention / pH sensitivity: in words
nucleic acids = test: Excitation/emission maxima of dyes complexed with nucleic acids; type: physicochemical; set-up: key: wavelength in nm; details: Table 2; dye complexed with nucleic acids
Excerpt: Dye I is lightly colored and is virtually non-fluorescent when diluted in aqueous solution according to the method of the invention. Dye I is highly membrane-permeant and labels all cells, whether live or dead. When Dye I binds with intracellular nucleic acid polymers such as DNA and RNA, the resultant dye-nucleic acid complex becomes extremely fluorescent upon illumination. The quantum yield of the preferred Dye I/DNA complex is greater than 0.02, typically greater than 0.1, preferably greater than 0.2, and more preferably greater than 0.3. Typically, Dye I combines with intracellular nucleic acids to give a green or red fluorescence. When excited at a wavelength between about 300 nm and about 500 nm, the dyes complexed with nucleic acids have an emission maximum between about 500 and about 610 nm (see Table 2). Preferably, Dye I complexed with nucleic acids has an emission maximum of between about 500 nm and about 535 nm, resulting in a true green fluorescent signal in cells of the sample where Dye I is present alone.

S. sonnei = test: Fluorescence per cell, stained bacteria (microtiter plate reader); type: cell-based, Shigella sonnei; details: optimal dye concentration, corrected for cell number
Experimental: (§1) 1. Measured in a fluorescence microtiter plate reader with extraction and
(§2) emission filters at 485+/-10 and 530+/-12, respectively. Fluorescence dat
(§3) are corrected for cell number; but are not corrected for cell volume or
(§4) 2. Optimal dye concentrations determined as in Example 3.
(§5) 3. Suspension concentrations as used for Example 3.
(§6) A culture of E. coli is washed by centrifugation and resuspended in water to its original volume. Using Corning 96-well microtiter plates with flat bottoms, 150 μL volumes of suspension are loaded per well. A single well of sterile water is the well background standard. Using a Dynatech MR600 microplate reader equipped with a 410 nm filter, absorbance is determined for the initial volumes of suspension. The suspension is diluted seven times by serial ten-fold dilutions in water, 150 μL of suspension per well, and the absorbance measured for each dilution. Following the absorbance measurements, each dilution loaded into wells is further diluted 1:10 and plated in duplicate on nutrient growth agar. The colonies are counted and expressed as colony forming units per milliliter (cfu/mL). Using the turbidity of the dilution in the microtiter plate, the suspension is diluted to a density of about 1×10^9 cfu/mL.
(§7) The bacteria suspension, adjusted to a known density as described above, is diluted seven times by serial ten-fold dilutions in water; 150 μL of suspension per well. Three-fold serial dilutions of dye are used (30-0.04 μM); 50 μL of dye at 4× final concentration. Using Corning 96-well microtiter flat-bottom plates, a matrix is set up whereby the cell concentration decreases across the plate and the dye concentration decreases down the plate, final volume per well is 200 μL. The top row and first column are reserved for the control, sterile water. The plate is incubated at 37° C. for 30 minutes, then read in a Millipore Cytofluor™ 2350 96-well fluorescence microplate reader at a fixed excitation of 485+/-10 nm and each of three emission wavelengths, 530+/-12, 620+/-20, or 645+/-20 nm. The results determine the best dye range (30-1 μM) and the best cell concentrations (concentrated through first three ten-fold dilutions) for optimal dye loading. […] Using the four dye dilutions and the four bacterial dilutions, many bacteria and dyes can be assayed quickly. The data collected allow the determination of optimal dye and cell concentration required for maximal fluorescence intensity per cell.

P. aeruginosa = test: as above; type: cell-based, Pseudomonas aeruginosa; details: optimal dye concentration, corrected for cell number
Experimental: as §1, §2, §3, §4, §5, §6, §7

B. cereus = test: as above; type: cell-based, Bacillus cereus; details: optimal dye concentration, corrected for cell number
Experimental: as §1, §2, §3, §4, §5, §6, §7

S. oranienburg = test: as above; type: cell-based, Salmonella oranienburg; details: optimal dye concentration, corrected for cell number
Experimental: as §1, §2, §3, §4, §5, §6, §7

K. pneumonia = test: as above; type: cell-based, Klebsiella pneumonia; details: optimal dye concentration, corrected for cell number
Experimental: as §1, §2, §3, §4, §5, §6, §7

E. coli = test: as above; type: cell-based, Escherichia coli; details: for Fluorescence/Cell (ex 485/em 530): E. coli, optimal dye concentration, corrected for cell number; for Normalized Fluorescence/cell (ex 485 nm/em 530 nm), Escherichia coli: scaled to thiazole orange
Excerpt: as §1, §2, §3, §4, §5
(§8) Factors such as degree of fluorescence enhancement with nucleic acid binding, self quenching, molar extinction coefficient, membrane permeability, intracellular partitioning, nucleic acid binding affinity, and quantum yield contribute to the overall fluorescence of nucleic acid stains in cells. Enhanced cell fluorescence obtained with Dye I is related to unexpected properties other than quantum yield alone. Quantum yield is determined as described above (foot note to Table 2). Normalized quantum yield is determined to illustrate the fold-change in quantum yield of Dye I compared with thiazole orange, a related cell-permeant dye. The normalized fluorescence values represent the quantum yield of each dye divided by the quantum yield of thiazole orange. Fluorescence per cell is also scaled to thiazole orange values for both E. coli and S. aureus to allow direct comparison between relative (normalized) quantum yield and relative (normalized) fluorescence/cell.
as §6, §7

S. pyogenes = test: as above; type: cell-based, Streptococcus pyogenes; details: optimal dye concentration, corrected for cell number
Experimental: as §1, §2, §3, §4, §5, §6, §7

M. luteus = test: as above; type: cell-based, Micrococcus luteus; details: optimal dye concentration, corrected for cell number
Experimental: as §1, §2, §3, §4, §5, §6, §7

DNA = test: Quantum yield of dye on DNA versus fluorescein; type: physicochemical; details: for Normalized QY: QY divided by QY of thiazole orange; for QY (DNA): Table 2, Tris buffered saline pH 10, fluorescein assumed 0.92; for QY: Table 7, on DNA, fluorescein reference
Excerpt: ^ Quantum yield (QY) of dye on DNA (standard solution in Tris buffere
saline adjusted to pH 10) in comparison with fluorescein, which is assume
to have a quantum yield of 0.92 under the test conditions.
as §8

S. aureus = test: Fluorescence per cell, stained bacteria (microtiter plate reader); type: cell-based, Staphylococcus aureus; details: for Fluorescence/Cell (ex 485/em 530): S. aureus, optimal dye concentration, corrected for cell number; for Normalized Fluorescence/cell (ex 485 nm/em 530 nm), Staphylococcus aureus: scaled to thiazole orange
Excerpt: as §1, §2, §3, §4, §5, §8, §6, §7

calf thymus DNA = details: Table 5; bound to excess calf thymus DNA (50 bp/dye); cited from earlier work

Row | Molecule | EM max (nucleic acids) | EX max (nucleic acids) | Fluorescence/Cell (ex 485/em 530) (S. sonnei) | Fluorescence/Cell (ex 485/em 530) (P. aeruginosa) | Fluorescence/Cell (ex 485/em 530) (B. cereus) | Fluorescence/Cell (ex 485/em 530) (S. oranienburg) | Fluorescence/Cell (ex 485/em 530) (K. pneumonia) | Fluorescence/Cell (ex 485/em 530) (E. coli) | Normalized Fluorescence/cell (ex 485 nm/em 530 nm), Escherichia coli (E. coli) | Fluorescence/Cell (ex 485/em 530) (S. pyogenes) | Fluorescence/Cell (ex 485/em 530) (M. luteus) | Normalized QY (DNA) | QY (DNA) (DNA) | QY (DNA) | Fluorescence/Cell (ex 485/em 530) (S. aureus) | Normalized Fluorescence/cell (ex 485 nm/em 530 nm), Staphylococcus aureus (S. aureus) | also measured
1 | Sulfofluorescein diacetate |  |  |  |  |  |  |  |  |  |  |  |  |  |  |  |  | Loading (intact cells): More difficult; Retention (intact cells): better
2 | CCCCC1=CC(=Cc2oc3ccccc3[n+]2C)c2ccccc2N1c1ccccc1 [compound 624] | 501 | 480 | 11 | 14 | 709 | 15 | 17 | 24 | 12 | 0.05 | 162 | 3.2 | 0.58 | 0.58 | 44 | 13.8 | 
3 | CCCCCCN1C=CC(=Cc2sc3ccccc3[n+]2C)c2ccccc21 [compound 634] | 530 | 510 | 4 | 3 | 154 | 5 | 4 | 4 | 2 | 0.03 | 58 | 1.0 | 0.18 | 0.18 | 15 | 4.7 | 
4 | CC(=O)OCOC(=O)CN(CC(=O)OCOC(C)=O)Cc1c(O)ccc2c(C)cc(=O)oc12 [Calcein Blue AM] |  |  |  |  |  |  |  |  |  |  |  |  |  |  |  |  | T1/2 (time for half of dye to leak from intact cells) (intact cells; "probably", temperature not stated): < 15 min; Loading (intact cells): Easily loaded
5 | 5-(and-6)-Carboxy-2',7'-dichloro-fluorescein diacetate |  |  |  |  |  |  |  |  |  |  |  |  |  |  |  |  | pH sensitivity (intact cells): Lower pH-
6 | CC1=CC(=Cc2sc3ccccc3[n+]2C)c2ccccc2N1c1ccccc1 [compound 613] | 523 | 506 | 6 | 6 | 242 | 10 | 10 | 12 | 6 | 0.02 | 75 | 1.8 | 0.33 | 0.33 | 10 | 3.1 | 
7 | Carboxyfluorescein diacetate |  |  |  |  |  |  |  |  |  |  |  |  |  |  |  |  | T1/2 (time for half of dye to leak from intact cells) (intact cells; 37° C.): < 30 min; Retention (intact cells): Moderate; pH sensitivity (intact cells): sensitive
8 | C[n+]1c(C=CC=C2C=CN(CCC[N+](C)(C)CCC[N+](C)(C)CCCN3C=CC(=CC=Cc4oc5ccccc5[n+]4C)c4ccccc43)c3ccccc32)oc2ccccc21 [YOYO-3] |  |  |  |  |  |  |  |  |  |  |  |  |  |  |  |  | EM max (calf thymus DNA): 631 nm; EX max (calf thymus DNA): 612 nm
9 | CC[n+]1c(-c2ccccc2)c2cc(N)ccc2c2ccc(N)cc21 [Ethidium bromide] |  |  |  |  |  |  |  |  |  |  |  |  |  |  |  |  | EM max (calf thymus DNA): 595 nm; EX max (calf thymus DNA): 510 nm
